# Values of other authors, collected in publication PMC12382614, “(Oxidopyridyl)Porphyrins of Different Lipophilicity: Photophysical Properties, ROS Production and Phototoxicity on Melanoma Cells Under CoCl2-Induced Hypoxia” (Antioxidants, 2025).
# Key:
# [1] = design: method as in PMID 3222336; conditions: reference compound; cited from earlier work
# [2] = cited from earlier work
structure (smiles),measurement,setting,value
"C1=Cc2nc1c(-c1ccccc1)c1nc(c(-c3ccccc3)c3ccc([nH]3)c(-c3ccccc3)c3ccc([nH]3)c2-c2ccccc2)C=C1 [TPP, tetraphenylporphyrin, reference compound]",τFL,[1],10.7 ns
same,ΦISC,[2]; reference compound (in toluene),0.87
same,εT-T,[2]; reference compound,66 600 M^−1cm^−1
same,τT,[2]; reference compound,90 μs
